Laboratory results taken from ChEMBL document CHEMBL3745691, “Identification of a small molecule HIV-1 inhibitor that targets the capsid hexamer” (Bioorg Med Chem Lett, 2016).
Active and inactive are the calls of the source. No cut-off for these calls is given here.

Columns and labels:
[1] = Binding affinity to HIV1 capsid protein p24 by SPR assay; parameters: species or system Human immunodeficiency virus 1
[2] = test system: Human immunodeficiency virus 1; test: Binding affinity to HIV1 capsid protein p24 assessed as turbidity at 100 uM by spectrophotometer analysis
[3] = test system: Human immunodeficiency virus 1; test: Inhibition of HIV1 capsid protein p24 interaction with CPSF6 (308-327) at 300 uM
[4] = test system: Human immunodeficiency virus 1; test: Antiviral activity against HIV1 NL4-3 pseudotyped with JR-FL envelope infected in human U87.CD4.CCR5 cells by single-round infection assay; type: functional, organism-based; settings: Human immunodeficiency virus 1, NL4-3, U87/CD4/CCR5
[5] = Cytotoxicity against human U87 cells expressing CD4.CCR5; type: cell-based, U-87MG ATCC
[6] = Therapeutic index, ratio of CC50 for human U87 cells expressing CD4.CCR5 to IC50 for HIV1 NL4-3 pseudotyped with JR-FL envelope; type: cell-based, U-87MG ATCC; settings: read-out: Ratio CC50/IC50
[7] = test system: Human immunodeficiency virus 1; test: Inhibition of HIV1 capsid protein p24 interaction with CPSF6 (308-327) at 2.5 uM

Row | Structure (SMILES) | Kd [1] | Activity [2] | inhibition [3] | IC50 [4] | CC50 [5] | selectivity ratio [6] | inhibition [7]
1 | Cc1[nH]c2ccccc2c1CC(=O)N[C@@H](Cc1ccccc1)C(=O)N(C)c1ccccc1 | 2.53 µM | Active | Active | – | – | – | –
2 | O=C(Cc1c[nH]c2ccccc12)NCC1(c2ccccc2)CC1 | 38.2 µM | Active | – | 18.1 µM | 526 µM | > 29 | Active
